Data set [1] in a line: Effect of sulphite on the EPR signal of the DBNBS radical cation (DBNBS reacted with plasma or urine). More on the design: species or system human. How it is done: The characteristic spectrum of DBNBS-SO3^●− was a 9 line signal with an aN=1.32 mT and aH=0.06 mT (FIG. 8). This was obtained by reacting DBNBS with hydrogen peroxide and horseradish peroxidase. The addition of 10 mM sulphite to the reaction mixture caused the signal to increase by over 100 fold in intensity. The signal could also be obtained by reacting DBNBS with sulphite alone. However, when the DBNBS was reacted with the plasma of patients with renal failure and the urine from a normal individual, only the 3 line signal with an aN=1.32 mT was seen (FIGS. 7 & 9, respectively). The hydrogen hyperfine splitting seen in the spectrum of DBNBS-SO3^●− was absent. […] Therefore, we confirmed that DBNBS-SO3^●− and the DBNBS radical cation generated by renal patients' plasma or normal urine were completely different radicals.
Addition of sulphite to the mixture of DBNBS and plasma or urine decreased the signal height of the DBNBS radical cation. This could affect the determination of the oxidant in biological samples if there was sulphite contamination in the DBNBS preparation or endogenous sulphite in the biological sample itself. Therefore the dose response effect on addition of sulphite to the reaction mixture was investigated. […]

A further data set is described as follows: Solubility of spin trap. The format is physicochemical.

Results on two molecules are retold here after US20040067593A1, “Electron paramagnetic resonance method for diagnosis of active nephritis” (priority 2000, published 2004).

Consider `O=S([O-])[O-].[K+].[K+]` [sulphite, dipotassium sulphite], for which the “reduction in the signal height of the DBNBS radical cation” value turned out to be 1.4% in data set [1] (0.08 mM of sulphite in the reaction mixture) and 6.1% in data set [1] (final concentration of 0.4 mM sulphite in the reaction mixture). Consider `O=Nc1c(Cl)cc(S(=O)(=O)O)cc1Cl` [DCNBS, 3,5-dichloro-4-nitrosobenzene sulphonate], for which, in “Solubility of spin trap”, the “solubility compared with DBNBS” value was “better solubility”.
